{
  "source": "patent US20110217715A1",
  "about": "“GENE EXPRESSION IN DUCHENNE MUSCULAR DYSTROPHY” (CHILDREN'S HOSPITAL MEDICAL CENTER, priority 2008, published 2011)",
  "key": {"individuals with DMD": {"system": "individuals with DMD", "details": "individuals with DMD; cited from earlier work"}, "mdx mouse": {"system": "mdx mouse", "details": "cited from earlier work"}, "[1]": {"system": "mRNA expression in peripheral blood of individuals with DMD", "assay": "Whole-blood gene expression microarray: DMD administered deflazacort vs DMD administered prednisone", "type": "in vivo, human", "details": "blood", "procedure": "Fifteen ml of blood was collected from each individual into 6 PAXgene® Vacutainer® tubes (PreAnalytiX, Germany) by antecubital fossa venipuncture. PAXgene® tubes contain a proprietary reagent that immediately stabilizes RNA, thus reducing RNA degradation and minimizing gene expression changes following phlebotomy. The tubes were then inverted 20 times, then remained undisturbed for 2 h at room temperature (about 19° C. to about 22° C.), and then stored at -70° C. until processed. Total RNA was isolated using the Paxgene® blood RNA kit (PreAnalytiX, Germany) according to the manufacturers instructions. The RNA isolated is from all cells in whole blood. Typical yields of total RNA isolated from about 7.5 ml of human whole blood were between 10 μg RNA and 40 μg RNA. RNA quality and purity was analyzed by spectrophotometry using the Nanodrop ND-1000, and RNA integrity was analyzed using the Agilent 2100 Bioanalyzer. […] Sample labeling, hybridization to chips, and image scanning were performed using standard Affymetrix protocols. For each whole blood sample from control individuals and individuals with DMD, total RNA was labeled using the One-Cycle Target Labeling protocol and hybridized to the arrays. […] Double-stranded cDNA synthesis, biotin-labeled cRNA synthesis, and cRNA fragmentation were performed according to the Affymetrix GeneChip Eukaryotic Expression Analysis protocol. The labeled, fragmented cRNA (15 μg) was hybridized at 45° C. overnight. After hybridization, the array was washed and stained. The arrays were scanned with an argon-ion laser at λ=570 nm, with a resolution of 3 μm/pixel (Affymetrix, Inc.). After scanning the array, the raw probe level values for each probe were saved in Affymetrix.cel files. […] Statistical analyses, including t-test analyses, unsupervised hierarchical clustering, and principal component analyses were conducted using Genespring 7.2 software ([…]® 7, Silicon Genetics, Redwood City Calif.). […] Corrections for multiple comparisons used a Benjamini-Hochberg False Discovery Rate (FDR) of 0.05, disclosed in Tang et al., J Cereb Blood Flow Metab 26 (2006) 1089, which is expressly incorporated by reference herein in its entirety. […] Sample processing and array hybridization, probe-level data analysis, and statistical analysis were identical to Example 1."}, "[2]": {"system": "mRNA expression in peripheral blood of individuals with DMD", "assay": "Whole-blood gene expression microarray: DMD administered prednisone or deflazacort vs DMD not administered steroid", "type": "in vivo, human", "procedure": "Fifteen ml of blood was collected from each individual into 6 PAXgene® Vacutainer® tubes (PreAnalytiX, Germany) by antecubital fossa venipuncture. PAXgene® tubes contain a proprietary reagent that immediately stabilizes RNA, thus reducing RNA degradation and minimizing gene expression changes following phlebotomy. The tubes were then inverted 20 times, then remained undisturbed for 2 h at room temperature (about 19° C. to about 22° C.), and then stored at -70° C. until processed. Total RNA was isolated using the Paxgene® blood RNA kit (PreAnalytiX, Germany) according to the manufacturers instructions. The RNA isolated is from all cells in whole blood. […] Sample labeling, hybridization to chips, and image scanning were performed using standard Affymetrix protocols. For each whole blood sample from control individuals and individuals with DMD, total RNA was labeled using the One-Cycle Target Labeling protocol and hybridized to the arrays. […] Double-stranded cDNA synthesis, biotin-labeled cRNA synthesis, and cRNA fragmentation were performed according to the Affymetrix GeneChip Eukaryotic Expression Analysis protocol. […] After hybridization, the array was washed and stained. […] After scanning the array, the raw probe level values for each probe were saved in Affymetrix.cel files. […] Statistical analyses, including t-test analyses, unsupervised hierarchical clustering, and principal component analyses were conducted using Genespring 7.2 software ([…]® 7, Silicon Genetics, Redwood City Calif.). […] Corrections for multiple comparisons used a Benjamini-Hochberg False Discovery Rate (FDR) of 0.05, disclosed in Tang et al., J Cereb Blood Flow Metab 26 (2006) 1089, which is expressly incorporated by reference herein in its entirety. […] Individuals with DMD were evaluated and had been diagnosed by a single board-certified pediatric neurologist. The diagnosis of DMD was based in part upon clinical history, examination findings, and selected muscle biopsies and was confirmed by molecular diagnostic testing. […] Sample processing and array hybridization, probe-level data analysis, and statistical analysis were identical to Example 1."}, "[3]": {"details": "DMD administered deflazacort or prednisone vs not administered"}},
  "data": [
    {"compound": "Cn1cnc([N+](=O)[O-])c1Sc1ncnc2nc[nH]c12", "note": "[azathioprine]", "values": [
      {"measurement": "muscle function and strength", "setting": "individuals with DMD", "result": "no improvement"}
    ]},
    {"compound": "cyclosporin A", "values": [
      {"measurement": "function and histology", "setting": "mdx mouse; mdx mouse", "result": "improves function and histology"}
    ]},
    {"compound": "C[C@]12C=CC(=O)C=C1CC[C@@H]1[C@@H]2C(=O)C[C@@]2(C)[C@H]1CC[C@]2(O)C(=O)CO", "note": "[prednisone]", "values": [
      {"measurement": "expression of interleukin 1 beta, interleukin 1 receptor antagonist, and interleukin 6 receptor", "setting": "[1]; individuals with DMD administered prednisone", "result": "up-regulated"},
      {"measurement": "expression of genes related to lipid metabolism", "setting": "[1]; prednisone compared to deflazacort", "result": "up-regulated"},
      {"measurement": "muscle function and strength", "setting": "individuals with DMD", "result": "improved muscle function and strength"},
      {"measurement": "expression levels of FKBP5", "setting": "[2]; [3]", "result": "up-regulated"},
      {"measurement": "expression levels of genes in the chondroitin sulfate biosynthesis pathway", "setting": "[2]; [3]", "result": "up-regulated"},
      {"measurement": "expression levels of haptoglobin and CD163 nucleic acids", "setting": "[2]; [3]", "result": "up-regulated"},
      {"measurement": "expression levels of lactotransferrin and lipocalin", "setting": "[2]; [3]", "result": "increased expression levels"},
      {"measurement": "expression of KFL10", "setting": "[2]; individuals administered prednisone, deflazacort, or both vs DMD not administered any agent", "result": "up-regulated"},
      {"measurement": "expression of KFL10", "setting": "mdx mouse; six weeks of prednisone administration in the mdx mouse", "result": "up-regulated"}
    ]}
  ]
}
